According to patent US10307451B2, “Phytoestrogen product of red clover and pharmaceutical uses thereof” (Sinoveda Canada Inc., priority 2010, dated 2019):
≈ marks a conversion by molar mass, not a printed value. Where two headings read alike, the source gives them in different places.

Assays:
[1] = CaCo-2 permeability of isoflavones in a Red clover extract; settings: human
Caco-2 = settings: human
[2] = tested on: human intestinal microflora; assay: Biotransformation by human intestinal bacteria (fecal microflora incubation); assay type: in vitro ADME; settings: for isoflavone left in the incubation media: human, 120 h, 100 µM
Procedure: Fresh human fecal samples were collected from 4 volunteers. Five grams of each were pooled together and mixed well with 30 mL BHI culture medium. The fecal suspension was centrifuged at 200 g for 5 min and supernatant was decanted and centrifuged at 5,000 g for another 30 min. The resultant precipitate was re-suspended with 10 mL BHI medium to produce intestinal micro flora solution.
As the biotransformation of drugs by human intestinal bacteria was determined in a 5 mL incubation system containing 250 μL intestinal microflora solution, 50 μL stock solution in DMSO in BHI medium. […] Zero-minute incubations served as controls. Reactions were stopped by extracting samples with 15 ml of ethanol twice. The two ethanol extractions were combined, dried and re-suspended in 80% methanol for HPLC/MS analysis.

[3] = Solubility interactions of isoflavones in fasted simulated intestinal fluid (FaSSIF); assay type: physicochemical; settings: for Biochanin A saturation concentration: fasted media, 37° C.
Procedure: Isoflavones: daidzein, genistein, formononetin and Biochanin A were obtained from Indofine. Simulated intestinal fluid buffer powder mimicking a fasted state (FaSSIF) was obtained from Biorelevant SIF media, Biorelevant.com, Switzerland.
To prepare accurate concentrations of isoflavones in microtubes, stock solutions of individual isoflavones were prepared at 1 mg/mL in methanol. The amount of isoflavone designated to be held constant was provided at a concentration that well exceeded (about 20×) the saturation concentration for that isoflavone. The appropriate amount of stock was transferred to each microtube and the material was dried down in a vacuum centrifuge.
The competing isoflavone was prepared at 0, 1, 5, 10, 50, 100, 200 μg/mL (FIGS. 11 and 12) and, in the case of formononetin, 400 μg/mL (FIG. 9).
In the case of formononetin competition with Biochanin A, the amount of formononetin was held constant at 50 μg in 1 ml buffer (saturation concentration for formononetin in FaSSIF is about 2 μg/mL). The competing Biochanin A was prepared at 0, 1, 5, 10, 50, 100 and 200 μg/mL (FIG. 10).
Each tube was then reconstituted with 1 mL of FaSSIF buffer, sonicated and allowed to equilibrate with occasional agitation for 24 hours at 37° C. This produced a solution that contained saturated isoflavone concentrations mimicking mammalian intestinal conditions.
At the end of 24 hours each tube containing isoflavones and FaSSIF buffer was briefly centrifuged at 5000 rpm in a microcentrifuge held at 37° C. (2 minutes). A portion of the supernatant (400 μL) was then immediately placed in a centrifugal filter unit (UltraFree-MC-GV […]) and the sample filtered by centrifugation (8000 rpm, 5 minutes, 37° C.). Upon filtration 200 μL filtrate was immediately placed in a microtube and 200 μL methanol added to ensure that the isoflavones remained in solution. The sample was mixed and 200 μL of the mixture was transferred to injection vials provided with 200 μL polypropylene injection inserts.
The samples were analyzed by HPLC with diode array detection at 260 nm using 20 μL injections.

MC3T3 cells = assay: Osteoblast differentiation of MC3T3 cells (ALP/cell number); assay type: cell-based; settings: 10 μM total isoflavones, 1 week
Procedure: Effects of isoflavones on the differentiation of osteoblast in MC3T3 cells followed Ge et al., 2006 and osteoclast differentiation in Raw264.7 cells followed Garcia Palacios et al., 2005. Cell numbers were measured with CellTag from Li-Cor Biosciences. Both activities of alkaline and acid phosphatase were measured with a plate reader at 405 nm. Isoflavones were first dissolved in DMSO and stock solutions were prepared at 10 mM and the final concentration of total isoflavones in test solution was 10 μM. Osteoblast and osteoclast differentiations were quantified by measuring activities of alkaline phosphatase (ALP) and acidic phosphatase (ACP). ALP is highly expressed by the mature osteoblasts and ACP is expressed by osteoclasts. Values of integrated intensity of fluorescence from […] staining serve as a correction factor for the difference in cell numbers. Therefore, ALP/cell number and ACP/cell number ratios are used to quantify osteoblast and osteoclast activities. Confluence MC3T3 cells were treated with 10 μM of isoflavones for 1 week and then the activity of alkaline phosphatase (ALP) was measured as an indicator of differentiation. […] To examine if there were any synergistic effects, two isoflavones were mixed in a 1:9 ratio and tested in the final concentration of 10 μM. […]

human hepatocytes = assay: Metabolism of isoflavone mixtures by human hepatocytes; assay type: in vitro ADME
Procedure: (§1) Human liver microsomes, intestinal microsomes, and hepatocytes of human female origin were purchased from XenoTech. All chemicals were purchased from Sigma-Aldrich. […] The final DMSO in buffer or media was kept at 0.1%. Protocols supplied by XenoTech Inc., the supplier, were used for glucuronidation with microsomal incubation, and hepatocyte incubation. Samples were analyzed using LC/MS.

Raw264.7 cells = assay: Osteoclast differentiation in Raw264.7 cells (ACP/cell number); assay type: cell-based; settings: 10 μM total isoflavones, MCSF and RANKL stimulated
Procedure: Effects of isoflavones on the differentiation of osteoblast in MC3T3 cells followed Ge et al., 2006 and osteoclast differentiation in Raw264.7 cells followed Garcia Palacios et al., 2005. Cell numbers were measured with CellTag from Li-Cor Biosciences. Both activities of alkaline and acid phosphatase were measured with a plate reader at 405 nm. Isoflavones were first dissolved in DMSO and stock solutions were prepared at 10 mM and the final concentration of total isoflavones in test solution was 10 μM. Osteoblast and osteoclast differentiations were quantified by measuring activities of alkaline phosphatase (ALP) and acidic phosphatase (ACP). ALP is highly expressed by the mature osteoblasts and ACP is expressed by osteoclasts. Values of integrated intensity of fluorescence from […] staining serve as a correction factor for the difference in cell numbers. Therefore, ALP/cell number and ACP/cell number ratios are used to quantify osteoblast and osteoclast activities. Raw246.7 cells were treated with MCSF and RANKL to stimulate the differentiation of osteoclasts. Isoflavones were added at the final concentration of 10 μM to examine their ability to inhibit differentiation.

plasma protein = assay: Plasma protein binding of absorbable aglycones; assay type: in vitro ADME
Description: (§2) The protocol used by (Moon, Sagawa et al. 2006) was used for measuring plasma protein binding of the absorbable aglycones. Parameters have been used for PBPK simulation. Conjugates of Biochanin A, formononetin, Genistein, Daidzein and Equol are predominant components in plasma. The respective aglycones constitute less than 5% of the total concentration.

[4] = tested on: human intestinal microsomes; assay: Metabolism of isoflavone mixtures by human intestinal microsomes; assay type: in vitro ADME
Procedure: as §1

[5] = Plasma protein binding of absorbable aglycones; assay type: in vitro ADME
Description: as §2

in vitro = settings: human, Caco-2

Row | Papp [1] | rate of metabolism by human hepatocytes (human hepatocytes; female, human) | metabolism by human intestinal microsomes ([4]; female, human) | Compound | bio-transformation products formed by intestinal microflora [2] | osteoclast differentiation (Raw264.7 cells) | fraction unbound [5] | other results
1 | – | – | – | COc1ccc(-c2coc3cc(O[C@@H]4O[C@H](CO)[C@@H](O)[C@H](O)[C@H]4O)cc(O)c3c2=O)cc1 [Biochanin A glucoside] | – | – | – | Mean Peff (Caco-2): 0.0164 ×10⁻⁶ cm/s
2 | – | – | – | COc1ccc(-c2coc3cc(O)cc(O)c3c2=O)cc1 [Biochanin A] | dihydrobiochanin A, genistein, and dihydrogenistein | highest inhibition | – | Mean Peff (Caco-2): 10.8 ×10⁻⁶ cm/s; Biochanin A saturation concentration ([3]; in the presence of 200 μg/mL daidzein): about 8.7 μg/mL; Biochanin A saturation concentration ([3]; in the presence of 200 μg/mL genistein): about 24.2 μg/mL; Biochanin A saturation concentration ([3]; in the presence of 400 μg/mL formononetin): about 4.5 μg/mL; ALP activity (osteoblast differentiation) (MC3T3 cells): highest ALP activity; rate of metabolism by human hepatocytes (human hepatocytes): 8.88E-6 ml/min/million cells; Plasma protein binding (plasma protein): over 97%; metabolism by human intestinal microsomes [4]: 5.41E-4 ml/min/mg protein
3 | 22 ×10⁻⁶ cm/s | 3.45E-6 ml/min/million cells | 7.31E-5 ml/min/mg protein | COc1ccc(-c2coc3cc(O)ccc3c2=O)cc1 [Formononetin] | dihydroformononetin, dihydrodaidzein, daidzein, and equol | – | < 0.03 | isoflavone left in the incubation media [2]: over 20%; solubility thermodynamic at 24 h ([3]; 37 °C, fassif, thermodynamic from solid): ~2 µg/mL (≈ 7.46 µM)
4 | 0.346 ×10⁻⁶ cm/s | – | – | O=c1c(-c2ccc(O)cc2)coc2cc(O[C@@H]3O[C@H](CO)[C@@H](O)[C@H](O)[C@H]3O)cc(O)c12 [Genistin] | – | – | – | –
5 | 0.122 ×10⁻⁶ cm/s | – | – | COc1ccc(-c2coc3cc(O[C@@H]4O[C@H](CO)[C@@H](O)[C@H](O)[C@H]4O)ccc3c2=O)cc1 [Ononin] | – | – | – | –
6 | – | 1.21E-5 ml/min/million cells | 1.07E-4 ml/min/mg protein | Oc1ccc([C@H]2COc3cc(O)ccc3C2)cc1 [Equol] | most resistant to bio-transformation | – | < 0.03 | isoflavone left in the incubation media [2]: over 60%

Row | Compound | Papp [1] | rate of metabolism by human hepatocytes (human hepatocytes; female, human) | metabolism by human intestinal microsomes ([4]; female, human) | bio-transformation products formed by intestinal microflora [2] | osteoclast differentiation (Raw264.7 cells) | fraction unbound [5] | other results
7 | O=c1c(-c2ccc(O)cc2)coc2cc(O[C@@H]3O[C@H](CO)[C@@H](O)[C@H](O)[C@H]3O)ccc12 [Daidzin] | 0.536 ×10⁻⁶ cm/s | – | – | – | – | – | –
8 | O=c1c(-c2ccc(O)cc2)coc2cc(O)ccc12 [Daidzein] | – | 4.07E-6 ml/min/million cells | 6.32E-5 ml/min/mg protein | – | stimulating osteoclast differentiation | ~0.2 | Papp (in vitro): 26.6 ×10⁻⁶ cm/s
9 | O=c1c(-c2ccc(O)cc2)coc2cc(O)cc(O)c12 [Genistein] | 27.5 ×10⁻⁶ cm/s | – | – | – | stimulating osteoclast differentiation | < 0.03 | bio-transformation products formed by intestinal microflora ([2]; 100 μM, anaerobic, 37° C., up to 120 h): dihydrogenistein; rate of metabolism by human hepatocytes (human hepatocytes; isoflavone mixtures, female origin): 5.14E-6 ml/min/million cells; metabolism by human intestinal microsomes ([4]; isoflavone mixtures, glucuronidation, female origin): 4.28E-4 ml/min/mg protein
